Measurements: PMC5218480 (PLoS ONE, 2017)

System: MV-4-11 cells
Experiment: Gene expression microarray analysis (Affymetrix PrimeView) and GSEA
Format: cell-based, human
Set-up: RFU PODN (11730768_x_at) / Fold change /veh PODN (11730768_x_at) / RFU LINC00158 (11744669_a_at) / Fold change /veh LINC00158 (11744669_a_at) / RFU DUSP10 (11751237_a_at) / Fold change /veh DUSP10 (11751237_a_at) / RFU ID3 (11757404_x_at) / Fold change /veh ID3 (11757404_x_at) / RFU PLEKHG5 (11737974_s_at) / Fold change /veh PLEKHG5 (11737974_s_at) / RFU LRRC4B (11730491_at) / Fold change /veh LRRC4B (11730491_at) / RFU GIMAP4 (11747438_a_at) / Fold change /veh GIMAP4 (11747438_a_at) / RFU KRT8 (11758183_x_at) / Fold change /veh KRT8 (11758183_x_at) / RFU CNN1 (11734310_a_at) / Fold change /veh CNN1 (11734310_a_at) / RFU VPS37D (11726825_at) / Fold change /veh VPS37D (11726825_at) / RFU C10orf10 (11716522_x_at) / Fold change /veh C10orf10 (11716522_x_at) / RFU KIR2DL2 /// KIR2DL4 /// KIR2DL5A /// KIR2DL5B /// KIR2DS1 /// KIR2DS2 /// KIR2DS3 /// KIR2DS4 /// KIR3DL3 /// KIR3DL3 /// KIR3DS1 (11738374_at) / Fold change /veh KIR2DL2 /// KIR2DL4 /// KIR2DL5A /// KIR2DL5B /// KIR2DS1 /// KIR2DS2 /// KIR2DS3 /// KIR2DS4 /// KIR3DL3 /// KIR3DL3 /// KIR3DS1 (11738374_at) / RFU C1QL1 (11718748_at) / Fold change /veh C1QL1 (11718748_at) / RFU TMPRSS4 (11747572_a_at) / Fold change /veh TMPRSS4 (11747572_a_at) / RFU HAMP (11756126_x_at) / Fold change /veh HAMP (11756126_x_at) / RFU RNFT2 (11725882_a_at) / Fold change /veh RNFT2 (11725882_a_at) / RFU NR4A2 (11747474_a_at) / Fold change /veh NR4A2 (11747474_a_at) / RFU ABCC12 (11746883_a_at) / Fold change /veh ABCC12 (11746883_a_at) / RFU TMEM136 (11760407_x_at) / Fold change /veh TMEM136 (11760407_x_at) / RFU CLDN22 /// WWC2 (11732394_at) / Fold change /veh CLDN22 /// WWC2 (11732394_at) / RFU HLA-DPB1 (11760878_x_at) / Fold change /veh HLA-DPB1 (11760878_x_at) / RFU SPINT1 (11716480_a_at) / Fold change /veh SPINT1 (11716480_a_at) / RFU GAP43 (11754022_s_at) / Fold change /veh GAP43 (11754022_s_at) / RFU A4GNT (11735810_at) / Fold change /veh A4GNT (11735810_at) / RFU PRB3 (11715151_x_at) / Fold change /veh PRB3 (11715151_x_at) / RFU TUBB4B (11761932_at) / Fold change /veh TUBB4B (11761932_at) / RFU CAPN14 (11732068_a_at) / Fold change /veh CAPN14 (11732068_a_at) / RFU TMCC2 (11721928_a_at) / Fold change /veh TMCC2 (11721928_a_at) / RFU IRGQ (11745062_a_at) / Fold change /veh IRGQ (11745062_a_at) / RFU FAM174B (11720279_a_at) / Fold change /veh FAM174B (11720279_a_at) / RFU TMPRSS4 (11748680_a_at) / Fold change /veh TMPRSS4 (11748680_a_at) / RFU FAM212B (11763350_a_at) / Fold change /veh FAM212B (11763350_a_at) / RFU PLEKHG5 (11743358_a_at) / Fold change /veh PLEKHG5 (11743358_a_at) / RFU ZSCAN30 (11745921_a_at) / Fold change /veh ZSCAN30 (11745921_a_at) / RFU CMKLR1 (11741424_a_at) / Fold change /veh CMKLR1 (11741424_a_at) / RFU LOC101060620 /// MAPK8IP1 (11723275_at) / Fold change /veh LOC101060620 /// MAPK8IP1 (11723275_at) / RFU SPTSSB (11747773_x_at) / Fold change /veh SPTSSB (11747773_x_at) / RFU PRSS12 (11739890_at) / Fold change /veh PRSS12 (11739890_at) / RFU BIN1 (11741810_x_at) / Fold change /veh BIN1 (11741810_x_at) / RFU WNT11 (11732464_a_at) / Fold change /veh WNT11 (11732464_a_at) / RFU C10orf10 (11716521_a_at) / Fold change /veh C10orf10 (11716521_a_at) / RFU C5orf56 (11738089_at) / Fold change /veh C5orf56 (11738089_at) / RFU CYB561 (11721691_x_at) / Fold change /veh CYB561 (11721691_x_at) / RFU ANKRD19P (11752326_a_at) / Fold change /veh ANKRD19P (11752326_a_at) / RFU OR2T12 /// OR2T33 /// OR2T8 (11738714_s_at) / Fold change /veh OR2T12 /// OR2T33 /// OR2T8 (11738714_s_at) / RFU VCAN (11748164_a_at) / Fold change /veh VCAN (11748164_a_at) / RFU JSRP1 (11732532_at) / Fold change /veh JSRP1 (11732532_at) / RFU KRTAP10-11 (11738290_x_at) / Fold change /veh KRTAP10-11 (11738290_x_at) / RFU MYO3A (11730013_a_at) / Fold change /veh MYO3A (11730013_a_at) / RFU EBF3 (11725865_a_at) / Fold change /veh EBF3 (11725865_a_at) / RFU CAMK2N1 (11719241_x_at) / Fold change /veh CAMK2N1 (11719241_x_at) / RFU C5orf56 (11738088_a_at) / Fold change /veh C5orf56 (11738088_a_at) / RFU OLFML3 (11715873_a_at) / Fold change /veh OLFML3 (11715873_a_at) / RFU LOC100653217 /// NTM (11731650_a_at) / Fold change /veh LOC100653217 /// NTM (11731650_a_at) / RFU MAPK11 (11762145_a_at) / Fold change /veh MAPK11 (11762145_a_at) / RFU FIZ1 (11724087_x_at) / Fold change /veh FIZ1 (11724087_x_at) / RFU OASL (11726364_x_at) / Fold change /veh OASL (11726364_x_at) / RFU SOX15 (11748057_x_at) / Fold change /veh SOX15 (11748057_x_at) / RFU CD79A (11719716_a_at) / Fold change /veh CD79A (11719716_a_at) / RFU HIST1H1D (11736915_at) / Fold change /veh HIST1H1D (11736915_at) / RFU CASKIN2 (11723855_a_at) / Fold change /veh CASKIN2 (11723855_a_at) / RFU LOC730098 (11760151_x_at) / Fold change /veh LOC730098 (11760151_x_at) / RFU OR4N2 (11742367_at) / Fold change /veh OR4N2 (11742367_at) / RFU PRRT2 (11749266_a_at) / Fold change /veh PRRT2 (11749266_a_at) / RFU SNX32 (11753110_a_at) / Fold change /veh SNX32 (11753110_a_at) / RFU CDHR5 (11726645_a_at) / Fold change /veh CDHR5 (11726645_a_at) / RFU RCAN1 (11760418_a_at) / Fold change /veh RCAN1 (11760418_a_at) / RFU FAM167A (11723789_a_at) / Fold change /veh FAM167A (11723789_a_at) / RFU FAM26E (11764081_at) / Fold change /veh FAM26E (11764081_at) / RFU ISYNA1 (11749810_s_at) / Fold change /veh ISYNA1 (11749810_s_at) / RFU ACY1 (11761880_at) / Fold change /veh ACY1 (11761880_at) / RFU 11764098_at / Fold change /veh 11764098_at / RFU SAMD14 (11745864_x_at) / Fold change /veh SAMD14 (11745864_x_at) / RFU NPB (11741838_a_at) / Fold change /veh NPB (11741838_a_at) / RFU TMPRSS6 (11731388_a_at) / Fold change /veh TMPRSS6 (11731388_a_at) / RFU KRTAP10-2 (11738614_at) / Fold change /veh KRTAP10-2 (11738614_at) / RFU ARHGAP8 /// PRR5-ARHGAP8 (11727945_x_at) / Fold change /veh ARHGAP8 /// PRR5-ARHGAP8 (11727945_x_at) / RFU KRTAP5-7 /// NADSYN1 (11734609_at) / Fold change /veh KRTAP5-7 /// NADSYN1 (11734609_at) / RFU RASL12 (11751679_a_at) / Fold change /veh RASL12 (11751679_a_at) / RFU CDKN2B (11736163_a_at) / Fold change /veh CDKN2B (11736163_a_at) / RFU PRF1 (11729649_at) / Fold change /veh PRF1 (11729649_at) / RFU, ZNF638 /// ZNF638-IT1 / Fold change vs veh, ZNF638 /// ZNF638-IT1 / RFU, PANK3 / Fold change vs veh, PANK3 / RFU, SH3YL1 / Fold change vs veh, SH3YL1 / RFU, ZEB2 / Fold change vs veh, ZEB2 / RFU, NRIP1 / Fold change vs veh, NRIP1 / RFU, PTTG1IP / Fold change vs veh, PTTG1IP / RFU, CAPN2 / Fold change vs veh, CAPN2 / RFU, MED14 / Fold change vs veh, MED14 / RFU, SNORA58 / Fold change vs veh, SNORA58 / RFU, C1orf63 / Fold change vs veh, C1orf63 / RFU, LRRFIP1 / Fold change vs veh, LRRFIP1 / RFU, NDUFAF7 / Fold change vs veh, NDUFAF7 / RFU, SLC12A2 / Fold change vs veh, SLC12A2 / RFU, IBTK / Fold change vs veh, IBTK / RFU, ESF1 / Fold change vs veh, ESF1 / Fold change vs veh, TMEM50B / RFU, TAOK1 / Fold change vs veh, TAOK1 / RFU, ACBD3 / Fold change vs veh, ACBD3 / RFU, TMA16 / Fold change vs veh, TMA16 / RFU, RWDD3 / Fold change vs veh, RWDD3 / RFU, BCAT1 / Fold change vs veh, BCAT1 / RFU, EDEM3 / Fold change vs veh, EDEM3 / RFU, TMEM33 / Fold change vs veh, TMEM33 / RFU, WDR75 / Fold change vs veh, WDR75 / RFU, AHCTF1 / Fold change vs veh, AHCTF1 / RFU, TFRC / Fold change vs veh, TFRC / RFU, ZDHHC17 / Fold change vs veh, ZDHHC17 / RFU, NOM1 / Fold change vs veh, NOM1 / RFU, ARL8B / Fold change vs veh, ARL8B / RFU, ZBTB11 / Fold change vs veh, ZBTB11 / RFU, TAMM41 / Fold change vs veh, TAMM41 / RFU, KIAA1704 /// LOC100996395 / Fold change vs veh, KIAA1704 /// LOC100996395 / RFU, ING1 / Fold change vs veh, ING1 / RFU, TRMT61B / Fold change vs veh, TRMT61B / RFU, FUBP3 / Fold change vs veh, FUBP3 / RFU, TP53 / Fold change vs veh, TP53 / RFU, TNKS2 / Fold change vs veh, TNKS2 / RFU, ZFP14 / Fold change vs veh, ZFP14 / RFU, ACTR2 / Fold change vs veh, ACTR2 / RFU, PPP3R1 / Fold change vs veh, PPP3R1 / RFU, PIK3R1 / Fold change vs veh, PIK3R1 / RFU, HNRNPA1 / Fold change vs veh, HNRNPA1 / RFU, RNF170 / Fold change vs veh, RNF170 / RFU, ZNF28 / Fold change vs veh, ZNF28 / RFU, RNGTT / Fold change vs veh, RNGTT / RFU, OGT / Fold change vs veh, OGT / RFU, BRD1 / Fold change vs veh, BRD1 / RFU, MARS / Fold change vs veh, MARS / RFU, ZNF655 / Fold change vs veh, ZNF655 / RFU, FAHD1 / Fold change vs veh, FAHD1 / RFU, BDP1 / Fold change vs veh, BDP1 / RFU, LRRCC1 / Fold change vs veh, LRRCC1 / RFU, ARID1A / Fold change vs veh, ARID1A / RFU, ZNF146 / Fold change vs veh, ZNF146 / RFU, ZNF330 / Fold change vs veh, ZNF330 / RFU, GPN3 / Fold change vs veh, GPN3 / RFU, C9orf123 / Fold change vs veh, C9orf123 / RFU, N4BP2L2 / Fold change vs veh, N4BP2L2 / RFU, ARFIP1 / Fold change vs veh, ARFIP1 / RFU, FAM179B / Fold change vs veh, FAM179B / RFU, BCL10 / Fold change vs veh, BCL10 / RFU, UHRF1BP1L / Fold change vs veh, UHRF1BP1L / RFU, BET1 / Fold change vs veh, BET1 / RFU, CNOT2 / Fold change vs veh, CNOT2 / RFU, ZNF268 / Fold change vs veh, ZNF268 / Fold change vs veh, ZNF507 / RFU, DGCR2 / Fold change vs veh, DGCR2 / RFU, WDSUB1 / Fold change vs veh, WDSUB1 / Fold change vs veh, HSP90B1 /// MIR3652 / RFU, ADSS / Fold change vs veh, ADSS / RFU, GK / Fold change vs veh, GK / RFU, ZNF148 / Fold change vs veh, ZNF148 / RFU, TAF9 / Fold change vs veh, TAF9 / RFU, SLC1A5 / Fold change vs veh, SLC1A5 / RFU, SLMO2 / Fold change vs veh, SLMO2 / RFU, ABCC4 / Fold change vs veh, ABCC4 / RFU, LOC101060439 /// RAP1B / Fold change vs veh, LOC101060439 /// RAP1B / RFU, RFX7 / Fold change vs veh, RFX7 / RFU, GTPBP10 / Fold change vs veh, GTPBP10 / RFU, CNEP1R1 / Fold change vs veh, CNEP1R1 / RFU, BIVM-ERCC5 /// ERCC5 / Fold change vs veh, BIVM-ERCC5 /// ERCC5 / RFU, ILF3 / Fold change vs veh, ILF3 / RFU 11762660_at / Fold change /veh 11762660_at / RFU VCAN (11757783_s_at) / Fold change /veh VCAN (11757783_s_at) / RFU DDX43 (11728927_at) / Fold change /veh DDX43 (11728927_at) / RFU KRT8 (11758188_x_at) / Fold change /veh KRT8 (11758188_x_at) / RFU NKD1 (11759106_at) / Fold change /veh NKD1 (11759106_at) / RFU SRD5A1 (11742802_a_at) / Fold change /veh SRD5A1 (11742802_a_at) / RFU TPSAB1 /// TPSB2 (11721975_s_at) / Fold change /veh TPSAB1 /// TPSB2 (11721975_s_at) / RFU GSTM3 (11746129_a_at) / Fold change /veh GSTM3 (11746129_a_at) / RFU IL23R (11737362_x_at) / Fold change /veh IL23R (11737362_x_at) / RFU TMEM51 (11727254_a_at) / Fold change /veh TMEM51 (11727254_a_at) / RFU PIWIL2 (11732686_x_at) / Fold change /veh PIWIL2 (11732686_x_at) / RFU ORM1 (11744905_x_at) / Fold change /veh ORM1 (11744905_x_at) / RFU CCDC152 (11743942_at) / Fold change /veh CCDC152 (11743942_at) / RFU ECM1 (11717891_a_at) / Fold change /veh ECM1 (11717891_a_at) / RFU IL23R (11748794_a_at) / Fold change /veh IL23R (11748794_a_at) / RFU TNFAIP8L3 (11732012_x_at) / Fold change /veh TNFAIP8L3 (11732012_x_at) / RFU MBOAT4 (11741988_at) / Fold change /veh MBOAT4 (11741988_at) / RFU 11764193_at / Fold change /veh 11764193_at / RFU TMEM53 (11763286_at) / Fold change /veh TMEM53 (11763286_at) / RFU MAGEB2 (11727129_at) / Fold change /veh MAGEB2 (11727129_at) / RFU TMEM200A (11744735_a_at) / Fold change /veh TMEM200A (11744735_a_at) / RFU CCDC152 (11751479_a_at) / Fold change /veh CCDC152 (11751479_a_at) / RFU FAM211A (11726209_a_at) / Fold change /veh FAM211A (11726209_a_at) / RFU RGS16 (11746705_a_at) / Fold change /veh RGS16 (11746705_a_at) / RFU VCAN (11755009_s_at) / Fold change /veh VCAN (11755009_s_at) / RFU RHOB (11743442_s_at) / Fold change /veh RHOB (11743442_s_at) / RFU RGS16 (11720943_a_at) / Fold change /veh RGS16 (11720943_a_at) / RFU RGS16 (11720944_at) / Fold change /veh RGS16 (11720944_at) / RFU, VPS4B / Fold change vs veh, VPS4B / RFU, CREB1 / Fold change vs veh, CREB1 / RFU, DNAJC13 / Fold change vs veh, DNAJC13 / RFU, GNAQ / Fold change vs veh, GNAQ / RFU, CDK5R1 / Fold change vs veh, CDK5R1 / RFU, ZRANB3 / Fold change vs veh, ZRANB3 / RFU, CUL4A / Fold change vs veh, CUL4A / RFU, CCNY / Fold change vs veh, CCNY / RFU, UFL1 / Fold change vs veh, UFL1 / RFU, COG3 / Fold change vs veh, COG3 / RFU, DIAPH2 / Fold change vs veh, DIAPH2 / RFU, SKA2 / Fold change vs veh, SKA2 / RFU, AFF3 / Fold change vs veh, AFF3 / RFU, LMF1 / Fold change vs veh, LMF1 / RFU, IPO11 / Fold change vs veh, IPO11 / RFU, DFFB / Fold change vs veh, DFFB / RFU, FOXP1 / Fold change vs veh, FOXP1 / RFU, CARD8 / Fold change vs veh, CARD8 / RFU, STRN3 / Fold change vs veh, STRN3 / RFU, ADK / Fold change vs veh, ADK / RFU, RASSF2 / Fold change vs veh, RASSF2 / RFU, WIPF1 / Fold change vs veh, WIPF1 / RFU, LARP1B / Fold change vs veh, LARP1B / RFU, RASA1 / Fold change vs veh, RASA1 / RFU, RB1 / Fold change vs veh, RB1 / RFU, PPFIA1 / Fold change vs veh, PPFIA1 / RFU, MAT2A / Fold change vs veh, MAT2A / RFU, CCT5 / Fold change vs veh, CCT5 / RFU, WDR92 / Fold change vs veh, WDR92 / RFU, CUX1 / Fold change vs veh, CUX1 / RFU, TTC7A / Fold change vs veh, TTC7A / RFU, TMEM135 / Fold change vs veh, TMEM135 / RFU, DEPTOR / Fold change vs veh, DEPTOR / RFU, CPM / Fold change vs veh, CPM / RFU, DNAJB6 / Fold change vs veh, DNAJB6 / RFU, CACNA2D3 / Fold change vs veh, CACNA2D3 / RFU, DTX4 / Fold change vs veh, DTX4 / RFU, TFCP2 / Fold change vs veh, TFCP2 / RFU, GMCL1 /// GMCL1P1 / Fold change vs veh, GMCL1 /// GMCL1P1 / RFU, AEBP2 / Fold change vs veh, AEBP2 / RFU, SNHG1 /// SNORD22 /// SNORD25 /// SNORD26 /// SNORD27 /// SNORD28 /// SNORD29 /// SNORD31 / Fold change vs veh, SNHG1 /// SNORD22 /// SNORD25 /// SNORD26 /// SNORD27 /// SNORD28 /// SNORD29 /// SNORD31 / Fold change (Aza/veh), C12orf56 (ProbeSet 11735607_a_at) / Fold change (ACY-1035/veh), C12orf56 (ProbeSet 11735607_a_at) / Fold change (Aza/veh), FGFR1OP (ProbeSet 11751329_s_at) / Fold change (ACY-1035/veh), FGFR1OP (ProbeSet 11751329_s_at) / Fold change (Aza/veh), VPS36 (ProbeSet 11739960_a_at) / Fold change (ACY-1035/veh), VPS36 (ProbeSet 11739960_a_at) / RFU SYPL1 (11715823_x_at) / Fold change /veh SYPL1 (11715823_x_at) / RFU IGFBP7 (11715501_s_at) / Fold change /veh IGFBP7 (11715501_s_at) / RFU REEP3 (11722064_at) / Fold change /veh REEP3 (11722064_at) / RFU IGLL1 (11728026_x_at) / Fold change /veh IGLL1 (11728026_x_at): dose or concentration left out as unconfirmed
Details: MV-4-11 cells, 48 hours

## Nc1ccc(-c2cccs2)cc1NC(=O)c1ccc2c(c1)cc(C1CC1)n2CCN1CCOCC1 [ACY-1035]
  Fold change /veh KRTAP10-11 (11738290_x_at): 1.00
